From the SangsterLogP compilation

Experiment: method code SF-HPLC, from DOI: 10.1002/jps.2600750109, PMID: 3958903
Conditions: pH 7.4

logD	SMILES
1.27	O=C(NCN1CCOCC1)c1ccccc1O
2.42	CC[C@H](C(=O)OCc1ccccc1C)[C@H](CO)Cc1cncn1C
2.23	CCC(C(=O)OC(C)c1ccccc1)C(CO)Cc1cncn1C (stereo unspecified)
2.69	CC[C@H](C(=O)OCc1ccc(Cl)cc1)[C@H](CO)Cc1cncn1C
2.31	CCC(C(=O)OCCc1ccccc1)C(CO)Cc1cncn1C (stereo unspecified)
0.73	CCOC(=O)CC(CO)C(CC)c1cncn1C (stereo unspecified)
1.73	CCCCOC(=O)[C@@H](CC)[C@H](CO)Cc1cncn1C
1.97	CCC(C(=O)OCc1ccccc1)C(CO)Cc1cncn1C (stereo unspecified)
2.71	CCCCCCOC(=O)C(CC)C(CO)Cc1cncn1C (stereo unspecified)
2.46	CC[C@H](C(=O)OCc1ccc(C)cc1)[C@H](CO)Cc1cncn1C
1.81	CC(C)(C)C(=O)OCOc1ccccc1C(=O)NCN1CCOCC1
